# Assays:
# POLCO [1] = experiment: Post-emergence herbicidal action against POLCO; format: in vivo, Polygonum convolvulus; settings: dosage 20 g/ha
# Summary of the method: (§1)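 Herbicidal effect was scored visually in percent after about 3 weeks in the greenhouse. Plants had been raised in sandy loam and treated post-emergence at the one-leaf stage with formulated compound at 600 to 800 l/ha water plus 0.2% wetting agent.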
# ABUTH [2] = experiment: Post-emergence herbicidal action against ABUTH; format: in vivo, Abutilon theophrasti; settings: visual assessment about 3 weeks after treatment vs untreated controls
# Summary of the method: as §1
# SETVI [3] = experiment: Pre-emergence herbicidal action against SETVI; format: in vivo, Setaria viridis
# Summary of the method: (§2)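 Herbicidal effect was assessed 3 weeks after treatment by visual comparison with untreated controls, 100% denoting dead plants. Aqueous WP or EC preparations had been applied at 600 to 800 l/ha with 0.2% wetting agent to the soil covering freshly sown seeds.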
# VERPE [4] = experiment: Post-emergence herbicidal action against VERPE; format: in vivo, Veronica persica; settings: 20 g/ha
# Summary of the method: as §1
# ECHCG [5] = experiment: Post-emergence herbicidal action against ECHCG; format: in vivo, Echinochloa crus-galli
# Summary of the method: as §1
# MATIN [6] = experiment: Post-emergence herbicidal action against MATIN; format: in vivo, Matricaria inodora
# Summary of the method: as §1
# ECHCG [7] = experiment: Pre-emergence herbicidal action against ECHCG; format: in vivo, Echinochloa crus-galli
# Summary of the method: as §2
# ABUTH [8] = experiment: Pre-emergence herbicidal action against ABUTH; format: in vivo, Abutilon theophrasti
# Summary of the method: as §2
# POLCO [9] = experiment: Pre-emergence herbicidal action against POLCO; format: in vivo, Polygonum convolvulus; settings: Fallopia convolvulus, 504 h, dosage 80 g/ha
# Summary of the method: as §2
# LOLRI [10] = experiment: Pre-emergence herbicidal action against LOLRI; format: in vivo, Lolium rigidum; settings: Lolium rigidum, 504 h, 80 g/ha
# Summary of the method: as §2
# SETVI [11] = experiment: Post-emergence herbicidal action against SETVI; format: in vivo, Setaria viridis
# Summary of the method: as §1
# VIOTR [12] = experiment: Post-emergence herbicidal action against VIOTR; format: in vivo, Viola tricolor
# Summary of the method: as §1
# PHBPU = experiment: Post-emergence herbicidal action against PHBPU; format: in vivo, Pharbitis purpurea; settings: dosage 20 g/ha
# Summary of the method: as §1
# AMARE [13] = experiment: Pre-emergence herbicidal action against AMARE; format: in vivo, Amaranthus retroflexus
# Summary of the method: as §2
# VIOTR [14] = experiment: Pre-emergence herbicidal action against VIOTR; format: in vivo, Viola tricolor
# Summary of the method: as §2
# VERPE [15] = experiment: Pre-emergence herbicidal action against VERPE; format: in vivo, Veronica persica; settings: dosage 80 g/ha
# Summary of the method: as §2
# AVEFA [16] = experiment: Pre-emergence herbicidal action against AVEFA; format: in vivo, Avena fatua; settings: Avena fatua, 504 h; 80 g/ha, pre-emergence
# Summary of the method: as §2
# AMARE [17] = experiment: Post-emergence herbicidal action against AMARE; format: in vivo, Amaranthus retroflexus; settings: 20 g/ha, visual assessment about 3 weeks after treatment, 100% = plants have died, 0% = like control plants
# Summary of the method: as §1
# ALOMY [18] = experiment: Pre-emergence herbicidal action against ALOMY; format: in vivo, Alopecurus myosuroides; settings: 80 g/ha, pre-emergence, scored visually after 3 weeks vs untreated controls (100% = plants have died, 0% = like control plants)
# Summary of the method: as §2
# STEME [19] = experiment: Post-emergence herbicidal action against STEME; format: in vivo, Stellaria media
# Summary of the method: as §1
# DIGSA [20] = experiment: Pre-emergence herbicidal action against DIGSA; format: in vivo, Digitaria sanguinalis
# Summary of the method: as §2
# ALOMY [21] = experiment: Post-emergence herbicidal action against ALOMY; format: in vivo, Alopecurus myosuroides; settings: dosage 20 g/ha, visual assessment about 3 weeks after treatment vs untreated controls
# Summary of the method: as §1
# STEME [22] = experiment: Pre-emergence herbicidal action against STEME; format: in vivo, Stellaria media
# Summary of the method: as §2
# DIGSA [23] = experiment: Post-emergence herbicidal action against DIGSA; format: in vivo, Digitaria sanguinalis
# Summary of the method: as §1
# MATIN [24] = experiment: Pre-emergence herbicidal action against MATIN; format: in vivo, Matricaria inodora
# Summary of the method: as §2
# LOLRI [25] = experiment: Post-emergence herbicidal action against LOLRI; format: in vivo, Lolium rigidum; settings: dosage 20 g/ha
# Summary of the method: as §1
# HORMU [26] = experiment: Pre-emergence herbicidal action against HORMU; format: in vivo, Hordeum murinum; settings: Hordeum murinum, 504 h; 80 g/ha, pre-emergence
# Summary of the method: as §2
# AVEFA [27] = experiment: Post-emergence herbicidal action against AVEFA; format: in vivo, Avena fatua; settings: 20 g/ha, visual assessment about 3 weeks after treatment, 100% = plants have died, 0% = like control plants
# Summary of the method: as §1
# HORMU [28] = experiment: Post-emergence herbicidal action against HORMU; format: in vivo, Hordeum murinum; settings: dosage 20 g/ha
# Summary of the method: as §1
# [29] = Setaria viridis, 504 h, dosage 20 g/ha
# [30] = Tripleurospermum inodorum, 504 h, dosage 20 g/ha
# [31] = 80 g/ha, scored visually after 3 weeks vs untreated controls (100% = plants have died, 0% = like control plants)
compound,measurement,setting,value
CCNC(=O)c1c(C(F)(F)F)ccc(C(=O)Nc2nnnn2C)c1C [Example 1-26],pest or weed control at 20 g/ha,"POLCO [1]; Fallopia convolvulus, 504 h",90%
same,pest or weed control at 5 g/ha,"ABUTH [2]; Abutilon theophrasti, 504 h, dosage 5 g/ha",90%
same,pest or weed control at 20 g/ha,"ABUTH [2]; Abutilon theophrasti, 504 h, dosage 20 g/ha",100%
same,pest or weed control at 20 g/ha,SETVI [3]; [29],80%
same,pest or weed control at 80 g/ha,"SETVI [3]; Setaria viridis, 504 h, dosage 80 g/ha",100%
same,pest or weed control at 20 g/ha,"VERPE [4]; Veronica persica, 504 h",80%
same,pest or weed control at 20 g/ha,"ECHCG [5]; Echinochloa crus-galli, 504 h, dosage 20 g/ha",80%
same,pest or weed control at 5 g/ha,"MATIN [6]; Tripleurospermum inodorum, 504 h, dosage 5 g/ha",90%
same,pest or weed control at 20 g/ha,MATIN [6]; [30],90%
same,pest or weed control at 20 g/ha,"ECHCG [7]; Echinochloa crus-galli, 504 h, 20 g/ha",80%
same,pest or weed control at 80 g/ha,"ECHCG [7]; Echinochloa crus-galli, 504 h, 80 g/ha",100%
same,pest or weed control at 80 g/ha,"ABUTH [8]; Abutilon theophrasti, 504 h, 80 g/ha, scored visually after 3 weeks vs untreated controls (100% = plants have died, 0% = like control plants)",100%
same,pest or weed control at 20 g/ha,"ABUTH [8]; Abutilon theophrasti, 504 h, dosage 20 g/ha, scored visually after 3 weeks vs untreated controls, 100% = plants have died, 0% = like control plants, read-out: Pre-emergence action against ABUTH (herbicidal activity in percent)",100%
same,pest or weed control at 80 g/ha,POLCO [9],90%
same,pest or weed control at 80 g/ha,LOLRI [10],80%
same,pest or weed control at 5 g/ha,"SETVI [11]; Setaria viridis, 504 h, dosage 5 g/ha",100%
same,pest or weed control at 20 g/ha,SETVI [11]; [29],100%
same,pest or weed control at 5 g/ha,"VIOTR [12]; Viola tricolor, 504 h, 5 g/ha",100%
same,pest or weed control at 20 g/ha,"VIOTR [12]; Viola tricolor, 504 h, 20 g/ha",100%
same,pest or weed control at 20 g/ha,"PHBPU; Ipomoea purpurea, 504 h",80%
same,pest or weed control at 20 g/ha,"AMARE [13]; Amaranthus retroflexus, 504 h, 20 g/ha, scored visually after 3 weeks vs untreated controls, 100% = plants have died, 0% = like control plants",100%
same,pest or weed control at 80 g/ha,"AMARE [13]; Amaranthus retroflexus, 504 h, 80 g/ha, scored visually after 3 weeks vs untreated controls, 100% = plants have died, 0% = like control plants",100%
same,pest or weed control at 20 g/ha,"VIOTR [14]; Viola tricolor, 504 h, dosage 20 g/ha",90%
same,pest or weed control at 80 g/ha,"VIOTR [14]; Viola tricolor, 504 h, dosage 80 g/ha",100%
same,pest or weed control at 80 g/ha,"VERPE [15]; Veronica persica, 504 h",80%
same,pest or weed control at 80 g/ha,AVEFA [16],100%
same,pest or weed control at 20 g/ha,"AMARE [17]; Amaranthus retroflexus, 504 h",100%
same,pest or weed control at 80 g/ha,"ALOMY [18]; Alopecurus myosuroides, 504 h",100%
same,pest or weed control at 20 g/ha,"STEME [19]; Stellaria media, 504 h, 20 g/ha",90%
same,pest or weed control at 5 g/ha,"STEME [19]; Stellaria media, 504 h, dosage 5 g/ha",90%
same,pest or weed control at 20 g/ha,"DIGSA [20]; Digitaria sanguinalis, 504 h, dosage 20 g/ha",100%
same,pest or weed control at 80 g/ha,"DIGSA [20]; Digitaria sanguinalis, 504 h, dosage 80 g/ha",100%
same,pest or weed control at 20 g/ha,"ALOMY [21]; Alopecurus myosuroides, 504 h",90%
same,pest or weed control at 20 g/ha,"STEME [22]; Stellaria media, 504 h, dosage 20 g/ha",100%
same,pest or weed control at 80 g/ha,"STEME [22]; Stellaria media, 504 h, dosage 80 g/ha",100%
same,pest or weed control at 5 g/ha,"DIGSA [23]; Digitaria sanguinalis, 504 h, 5 g/ha",90%
same,pest or weed control at 20 g/ha,"DIGSA [23]; Digitaria sanguinalis, 504 h, 20 g/ha",100%
same,pest or weed control at 20 g/ha,MATIN [24]; [30],100%
same,pest or weed control at 80 g/ha,"MATIN [24]; Tripleurospermum inodorum, 504 h, dosage 80 g/ha",100%
same,pest or weed control at 20 g/ha,"LOLRI [25]; Lolium rigidum, 504 h",80%
same,pest or weed control at 80 g/ha,HORMU [26],80%
CNC(=O)c1c(C(F)F)ccc(C(=O)Nc2nnco2)c1Cl [Example 5-122],Post-emergence action against POLCO in %,POLCO [1],80%
same,Post-emergence action at 20 g/ha against AVEFA in %,AVEFA [27],80%
same,Post-emergence action against ABUTH in %,ABUTH [2]; dosage 5 g/ha,80%
same,Post-emergence action against ABUTH in %,ABUTH [2]; dosage 20 g/ha,90%
same,Pre-emergence action against SETVI in %,SETVI [3]; dosage 80 g/ha,100%
same,Post-emergence action against VERPE in %,VERPE [4],80%
same,Post-emergence action against ECHCG in %,ECHCG [5]; dosage 5 g/ha,90%
same,Post-emergence action against ECHCG in %,ECHCG [5]; dosage 20 g/ha,90%
same,Post-emergence action against MATIN in %,MATIN [6]; dosage 5 g/ha,80%
same,Post-emergence action against MATIN in %,MATIN [6]; dosage 20 g/ha,80%
same,Pre-emergence action against ECHCG in %,ECHCG [7]; 20 g/ha,80%
same,Pre-emergence action against ECHCG in %,ECHCG [7]; 80 g/ha,100%
same,Pre-emergence action against ABUTH (herbicidal activity),ABUTH [8]; [31],100%
same,Pre-emergence action against ABUTH (herbicidal activity in percent),"ABUTH [8]; dosage 20 g/ha, scored visually after 3 weeks vs untreated controls, 100% = plants have died, 0% = like control plants",90%
same,Post-emergence action against SETVI in %,SETVI [11]; dosage 5 g/ha,80%
same,Post-emergence action against SETVI in %,SETVI [11]; dosage 20 g/ha,90%
same,Post-emergence action against VIOTR in %,VIOTR [12]; 5 g/ha,90%
same,Post-emergence action against VIOTR in %,VIOTR [12]; 20 g/ha,90%
same,Post-emergence action against PHBPU in %,PHBPU,90%
same,Pre-emergence action against AMARE in %,"AMARE [13]; 20 g/ha, scored visually after 3 weeks vs untreated controls, 100% = plants have died, 0% = like control plants",80%
same,Pre-emergence action against AMARE in %,AMARE [13]; [31],100%
same,Pre-emergence action against VIOTR in %,VIOTR [14]; dosage 20 g/ha,80%
same,Pre-emergence action against VIOTR in %,VIOTR [14]; dosage 80 g/ha,100%
same,Pre-emergence action against VERPE in %,VERPE [15],100%
same,Post-emergence action at 20 g/ha against AMARE in %,AMARE [17],90%
same,Pre-emergence action against ALOMY (herbicidal activity),ALOMY [18],80%
same,Post-emergence action against HORMU in %,HORMU [28],80%
same,Post-emergence action against STEME in %,STEME [19]; 20 g/ha,100%
same,Post-emergence action against STEME in %,STEME [19]; dosage 5 g/ha,90%
same,Pre-emergence action against DIGSA in %,DIGSA [20]; dosage 20 g/ha,100%
same,Pre-emergence action against DIGSA in %,DIGSA [20]; dosage 80 g/ha,100%
same,Post-emergence action against ALOMY in %,ALOMY [21],80%
same,Pre-emergence action against STEME in %,STEME [22]; dosage 20 g/ha,90%
same,Pre-emergence action against STEME in %,STEME [22]; dosage 80 g/ha,90%
same,Post-emergence action against DIGSA in %,DIGSA [23]; 5 g/ha,90%
same,Post-emergence action against DIGSA,DIGSA [23]; 20 g/ha,90%
same,Pre-emergence action against MATIN in %,MATIN [24]; dosage 80 g/ha,90%
same,Post-emergence action against LOLRI in %,LOLRI [25],80%
